From patent US7807704B2, “Bicyclic, nitrogen-containing compounds modulating CXCR4 and/or CCXCKR2” (Chemocentryx, Inc., priority 2006, dated 2010)

Assays:
CXCR4 = molecular target: T1, CXCR4 (Homo sapiens, UniProt P61073); assay: chemotaxis assay or 125I SDF-1α binding assay for CXCR4; conditions: first or only activity listed, read-out: CXCR4 activity (IC50 class)
T1 construct: all endogenously expressing CXCR4; endogenous in cells; host or cells: CEM-Nkr, CCRF-CEM, Jurkat, Molt-4; IL-2 stimulated human lymphocytes
T1 sequence (P61073 whole entry): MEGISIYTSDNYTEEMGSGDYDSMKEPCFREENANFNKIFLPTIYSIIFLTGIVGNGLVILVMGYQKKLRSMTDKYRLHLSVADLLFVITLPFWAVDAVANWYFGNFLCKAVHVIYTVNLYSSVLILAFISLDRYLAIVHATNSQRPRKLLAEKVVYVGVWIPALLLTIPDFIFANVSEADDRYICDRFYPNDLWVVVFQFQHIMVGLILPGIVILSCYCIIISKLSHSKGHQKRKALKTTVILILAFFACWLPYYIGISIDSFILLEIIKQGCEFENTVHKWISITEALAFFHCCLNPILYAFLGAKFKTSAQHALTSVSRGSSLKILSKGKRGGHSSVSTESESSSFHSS
Experimental: CEM-Nkr, CCRF-CEM (ATCC #CCL-119), Jurkat (ATCC #TIB-152), Molt-4 (ATCC# CRL-1582), cell lines, all endogenously expressing CXCR4, were used in compound screening and subsequent assays. These cell lines were cultured as a suspension in RPMI-1640 medium supplemented with 2 mM L-glutamine, 1.5 g/L sodium bicarbonate, 4.5 g/L glucose, 10 mM HEPES, 1 mM sodium pyruvate, and 10% FBS. Cells were grown under 5% CO2/95% air, 100% humidity at 37° C. and subcultured twice weekly at 1:6 (cells were cultured at a density range of 1×10^5 to 2×10^6 cells/mL) and harvested at 1×10^6 cells/mL. • b) Isolated Human IL-2 Stimulated Lymphocytes
Cells were centrifuged and resuspended in assay buffer (20 mM HEPES pH 7.1, 140 mM NaCl, 1 mM CaCl2, 5 mM MgCl2, and with 0.2% bovine serum albumin) to a concentration of 4×10^6 cells/mL for cell lines. Binding assays were set up as follows. […] Then 0.1 mL of ^125I labeled SDF-1α (obtained from Perkin Elmer Life Sciences, Boston, Mass.) diluted in assay buffer to a final concentration of ˜50 pM, yielding ˜30,000 cpm per well, was added, the plates sealed and incubated for approximately 3 hours at 4° C. on a shaker platform. Reactions were aspirated onto GF/B glass filters pre-soaked in 0.3% polyethyleneimine (PEI) solution, on a vacuum cell harvester (Packard Instruments; Meriden, Conn.). Scintillation fluid (40 μl; Microscint 20, Packard Instruments) was added to each well, the plates were sealed and radioactivity measured in a Topcount scintillation counter (Packard Instruments). Control wells containing either diluent only (for total counts) or excess SDF1 a (1 μg/mL, for non-specific binding) were used to calculate the percent of total inhibition for compound. The computer program Prism from GraphPad, Inc. (San Diego, Calif.) was used to calculate IC50 values. IC50 values are those concentrations required to reduce the binding of radiolabeled SDF-1α to the receptor by 50%. (For further descriptions of ligand binding and other functional assays, see Dairaghi, et al., J. Biol. Chem. 274:21569-21574 (1999), Penfold, et al., Proc. Natl. Acad. Sci. USA. 96:9839-9844 (1999), and Dairaghi, et al., J. Biol. Chem. 272:28206-28209 (1997)).
Chemotaxis assays were performed using 5 μm pore polycarbonate, polyvinylpyrrolidone-coated filters in 96-well chemotaxis chambers (Neuroprobe; Gaithersburg, Md.) using chemotaxis buffer (Hank's balanced salt solution (HBSS) and 1% FBS). CXCR4 ligand (i.e., SDF1a, R&D Systems; Minneapolis, Minn.) are use to evaluate compound mediated inhibition of CXCR4 mediated migration. Other chemokines (i.e., TECK; R&D Systems; Minneapolis, Minn.) are used as specificity controls. The lower chamber was loaded with 29 μl of chemokine (i.e., 0.1 nM SDF1a); the top chamber contained 50,000 Jurkat cells or IL-2 lymphocytes in 20 μl. The chambers were incubated 2 hours at 37° C., and the number of cells in the lower chamber quantified either by direct cell counts in five high powered fields per well or by the CyQuant assay (Molecular Probes), a fluorescent dye method that measures nucleic acid content and microscopic observation.
To evaluate small organic molecules that prevent the CXCR4 from binding ligand, an assay was employed that detected radioactive ligand (i.e, SDF-1) binding to cells expressing CXCR4 on the cell surface (for example, CEM-Nkr cells). For compounds that inhibited binding, whether competitive or not, fewer radioactive counts are observed when compared to uninhibited controls.
Equal numbers of cells were added to each well in the plate. The cells were then incubated with radiolabeled […]. Unbound ligand was removed by washing the cells, and bound ligand was determined by quantifying radioactive counts. Cells that were incubated without any organic compound gave total counts; non-specific binding was determined by incubating the cells with unlabeled ligand and labeled ligand. Percent inhibition was determined by the equation: […]

CCXCKR2 (CXCR7) = molecular target: T2, CCXCKR2 (CXCR7) (Homo sapiens, UniProt P25106); assay: displacement of 125I SDF-1 from CCXCKR2 (CXCR7) on MCF-7 and/or MDA-MB-435S cells; assay type: binding; conditions: second activity listed in the cell; read-out: CXCR7 activity (IC50 class)
T2 construct: expressed in transfected cells; host or cells: MDA-MB-435S transfected with pcDNA3.1(+)-hRDC1, and/or MCF-7 (endogenous receptor)
T2 sequence (P25106 whole entry): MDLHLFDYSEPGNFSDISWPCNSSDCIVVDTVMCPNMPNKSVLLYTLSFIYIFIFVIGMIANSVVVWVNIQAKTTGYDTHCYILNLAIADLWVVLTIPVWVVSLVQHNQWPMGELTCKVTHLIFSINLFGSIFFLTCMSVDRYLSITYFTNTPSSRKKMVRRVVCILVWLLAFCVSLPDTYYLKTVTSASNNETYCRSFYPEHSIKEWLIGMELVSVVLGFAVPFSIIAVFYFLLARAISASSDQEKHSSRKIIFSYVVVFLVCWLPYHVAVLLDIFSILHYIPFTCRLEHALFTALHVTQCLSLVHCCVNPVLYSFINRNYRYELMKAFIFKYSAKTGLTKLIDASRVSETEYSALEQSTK
Experimental: The ability of the compounds to displace the labeled chemokine from the CCXCKR2 receptor sites at multiple concentrations was then determined with the screening process.
Reagents and Cells. ^125I-labeled SDF-1 was purchased from Perkin-Elmer Life Sciences, Inc. (Boston, Mass.). The MCF-7 (adenocarcinoma; mammary gland) cell line was obtained from the American Type Culture Collection (Manassas, Va.) or and was cultured in DMEM (Mediatech, Herndon, Va.) supplemented with 10% fetal bovine serum (FBS) (HyClone Logan, Utah) and bovine insulin (0.01 mg/mL) (Sigma, St. Louis, Mo.) at 37° C. in a humidified incubator at a 5% CO2/air mixture. CCXCKR2 transfected MDA-MB-435S were produced as described below. MDA-MB-435S human breast cancer line, was purchased from ATCC, and cultured in DMEM/10% FBS medium. The complete coding sequence of the gene encoding CCXCKR2 (a.k.a. CXCR7, hRDC1), was isolated from MCF-7 cells using μMACs mRNA isolation kit (Miltenyi Biotec, Auburn, Calif.). DNA contamination was removed by DNase digestion via RNeasy columns (Qiagen, Inc., Valencia, Calif.) and cDNA was generated using GeneAmp RNA PCR Core Kit (Applied Biosystems, Foster City, Calif.). PCR of cDNA samples was performed using Taq PCR Master Mix kit (Qiagen, Inc.) and hRDC1 primers harboring 5′ and 3′ NotI sites (hRDC1F 5′ […]-3′ (SEQ ID NO:11, hRDC1R 5′-[…]-3′) Not I digested PCR product was ligated into Not I digested pcDNA3.1 (+)(Invitrogen, Carlsbad, Calif.) and screened for orientation and sequence confirmed. Plasmid DNA was then isolated from overnight bacterial cultures by Maxiprep (Qiagen, Inc.). Plasmid DNA (10 μg) was added to MDA-MB-435s cells and cells were electroporated (0.22 kV, 960 uF) via Gene Pulser (Biorad laboratories, Hercules, Calif.). 48 hr post-electroporation, cells were transferred to selection medium (1000 ug/ml G418).
Binding Analysis. Target compounds were tested to determine their ability to bind with CCXCKR2 sites on MCF-7 and/or MDA-MB-435S cells. Efficiency-maximized radioligand binding using filtration protocols as described in Dairaghi D J, et al., HHV8-encoded vMIP-I selectively engages chemokine receptor CCR5. Agonist and antagonist profiles of viral chemokines., J. Biol. Chem. 1999 Jul. 30; 274(31): 21569-74 and Gosling J, et al., Cutting edge: identification of a novel chemokine receptor that binds dendritic cell-and T cell-active chemokines including ELC, SLC, and TECK., J. Immunol. 2000 Mar. 15; 164(6):2851-6 was used.
In these assays, MCF-7 and/or MDA-MB-435S cells were interrogated with the target compounds and the ability of these compounds to displace ^125I radiolabeled SDF-1 was assessed using the protocol described in Dairaghi and Gosling. The target compounds were added to the plate to the indicated concentration and were then incubated with cells followed by the addition of radiolabeled chemokine (^125I SDF-1) for 3 hr at 4° C. in the following binding medium (25 mM HEPES, 140 mM NaCl, 1 mM CaCl2, 5 mM MgCl2 and 0.2% bovine serum albumin, adjusted to pH 7.1). All assays were then incubated for 3 hrs at 4° C. with gentle agitation. Following incubation in all binding assays, reactions were aspirated onto PEI-treated GF/B glass filters (Packard) using a cell harvester (Packard) and washed twice (25 mM HEPES, 500 mM NaCl, 1 mM CaCl2, 5 mM MgCl2, adjusted to pH 7.1). Scintillant (MicroScint 10, Packard) was added to the wells, and the filters were counted in a Packard Topcount scintillation counter. Data were analyzed and plotted using Prism (GraphPad Prism version 3.0a for Macintosh, GraphPad Software, www.graphpad.com).

IC50 (CXCR4) | IC50 (CCXCKR2 (CXCR7)) | Compound
< 1 µM | < 1 µM | CN(CCNC(=O)Cn1ccc2ccc(-c3ccc(F)cc3)cc21)C1CCCCC1 [No 23]
< 1 µM | 1 to 10 µM | Cc1ccc(-c2ccc3ccn(CC(=O)NCCN(C)C4CCCCC4)c3c2)cc1 [No 24]
< 1 µM | 1 to 10 µM | COc1ccc(-c2ccc3ccn(CC(=O)NCCN(C)C4CCCCC4)c3c2)cc1 [No 26]
< 1 µM | < 1 µM | CN(CCNC(=O)Cn1ccc2ccc(-c3ccc(Cl)c(Cl)c3)cc21)C1CCCCC1 [No 27]
1 to 10 µM | 1 to 10 µM | CN(CCNC(=O)Cn1ccc2ccc(-c3cccc(C#N)c3)cc21)C1CCCCC1 [No 28]
< 1 µM | 1 to 10 µM | CCCCc1ccc(-c2ccc3ccn(CC(=O)NCCN(C)C4CCCCC4)c3c2)cc1 [No 31]
< 1 µM | 1 to 10 µM | Cc1cc(C)cc(-c2ccc3ccn(CC(=O)NCCN(C)C4CCCCC4)c3c2)c1 [No 32]
< 1 µM | < 1 µM | Cc1cc(-c2ccc3ccn(CC(=O)NCCN(C)C4CCCCC4)c3c2)ccc1F [No 33]
< 1 µM | 1 to 10 µM | CN(CCNC(=O)Cn1ccc2ccc(-c3ccc4c(ccn4C)c3)cc21)C1CCCCC1 [No 35]
